In patent publication US6830893B2 (priority 1999, dated 2004):
Entries after “also recorded” stand apart in the source; their conditions may differ. Where two headings read alike, the source gives them in different places.

Experiments:
[1] = test system: human monocytes; experiment: Calcium mobilization (Fura-2) in human monocytes; format: cell-based
[2] = molecular target: T1, FPRL1 (Homo sapiens, UniProt P25090); experiment: Chemotaxis of FPRL1/293 cells; format: cell-based; conditions: for migration / chemotaxis of FPRL1/293 cells: wide range of concentrations
T1 construct: expressed in transfected cells; host or cells: human embryonic kidney (HEK) 293 cells, designated FPRL1/293
T1 sequence (P25090 1-351): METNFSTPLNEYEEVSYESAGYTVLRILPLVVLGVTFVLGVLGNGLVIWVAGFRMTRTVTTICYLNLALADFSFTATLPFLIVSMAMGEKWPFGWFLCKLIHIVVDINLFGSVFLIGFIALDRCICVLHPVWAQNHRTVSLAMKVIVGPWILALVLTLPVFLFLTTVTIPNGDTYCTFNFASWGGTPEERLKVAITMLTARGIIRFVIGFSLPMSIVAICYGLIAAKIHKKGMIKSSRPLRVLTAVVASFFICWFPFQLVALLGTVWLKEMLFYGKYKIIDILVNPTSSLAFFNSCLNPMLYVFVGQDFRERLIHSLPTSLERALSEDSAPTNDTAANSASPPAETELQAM
Method: The chemotactic response of cells transfected with a nucleic acid encoding FPR or FPRL1 was tested as another sensitive parameter to assess the receptor targets of T21/DP107. (Gong et al., J. Biol. Chem. 273: 4289 (1998); Gong et al., J. Biol. Chem. 272:11682 (1997); and Ben-Baruch et al., J. Biol. Chem. 270: 22123 (1995)). Accordingly, different concentrations of T21/DP107 were placed in the lower wells of a chemotaxis chamber and a cell suspension was placed in the upper wells. The upper and lower wells were separated by polycarbonate filters precoated with mouse collagen type I. After incubation, the cells that migrated across the filters were stained and counted. […] The CI (chemotaxis index), which represents the fold increase of leukocyte migration in response to T21/DP107 over control medium, was also determined. […] (FIG. 9B).
Leukocytes, ETFR and FPRL1/293 cell migration was assessed using a 48-well microchemotaxis chamber technique as previously described. (Gong et al., J. Biol. Chem. 273: 4289 (1998); Gong et al., J. Biol. Chem. 272: 11682 (1997); and Kliger et al., J. Biol. Chem. 272: 13496 (1997)). Different concentrations of stimulants were placed in wells of the lower compartment of the chamber (Neuro Probe, Cabin John, Mass.), the cell suspension was seeded in wells of the upper compartment which was separated from the lower compartment by a polycarbonate filter (Osmonics, Livermore, Calif.; 5 μm-pore size for leukocytes, 10 μm pore-size for ETFR and FPRL1/293 cells). For CD3+ T lymphocytes, the filters were precoated with 20 μg/ml bovine fibronectin (Sigma). The filters for ETFR and FPRL1/293 cell migration were precoated with 50 μg/ml collagen type I (Collaborative Biomedical products, Bedford, Mass.) to favor the attachment of the cells. After incubation at 37° C. (90 min for monocytes, 60 min for neutrophils, 180 min for T cells and 300 min for ETFR or FPRL1/293 cells), the filters were removed, stained and the cells migrating across the filter were counted by light microscopy after coding the samples. […] The significance of the increase in cell migration was determined using Student's t test and CI≧2 was statistically significant compared to medium control (at least p<0.05).

[3] = molecular target: T1, FPRL1; format: cell-based
Method: (Prossnitz and Ye, Pharmacol. Ther. 74: 73 (1997); Murphy, The N-formyl peptide chemotactic receptors, Chemoattractant ligands and their receptors. CRC Press, Boca Raton, p. 269 (1996); and Gao and M. Murphy, J. Biol. Chem. 268: 25395 (1993)).
(§1) Calcium mobilization was assayed by incubating 107/ml of monocytes, neutrophils, FPRL1 or ETFR transfectants in loading buffer containing 138 mM NaCl, 6 mM KCl, 1 mM CaCl2, 10 mM HEPES (pH 7.4), 5 mM glucose, 0.1% BSA with 5 μM Fura-2 (Sigma) at 37° C. for 30 min. The dye-loaded cells were washed and resuspended in fresh loading buffer. The cells were then transferred into quartz cuvettes ([…] in 2 ml) which were placed in a luminescence spectrometer LS50 B (Perkin-Elmer Limited, Beaconsfield, England). Stimulants at different concentrations were added in a volume of 20 μl to the cuvettes at indicated time points. The ratio of fluorescence at 340 and 380 nm wavelength was calculated using the FL WinLab program (Perkin Elmer).

[4] = test system: neutrophils; experiment: Calcium mobilization (Fura-2) in human neutrophils; format: cell-based
[5] = test system: human neutrophils; format: cell-based
[6] = test system: human peripheral blood monocytes; format: cell-based
[7] = test system: HIV-1; conditions: T lymphocyte tropic and monocyte tropic HIV-1; Lawless et al. 1996; cited from earlier work
[8] = test system: mock-transfected cells; experiment: Chemotaxis of mock-transfected cells; format: cell-based, rat; conditions: FIG. 3E
[9] = test system: HEK 293 cells; experiment: Calcium mobilization in parental or mock transfected HEK 293 cells; format: cell-based, human; conditions: control experiments
Method: (FIGS. 8C1, 8C2, 8F1, and 8F2).
as §1

[10] = test system: mock-transfected parental cells; experiment: Calcium mobilization in parental or mock-transfected rat basophil cell line; format: cell-based; conditions: rat basophil cell line without FPR
Method: as §1, with “neutrophils” for “neutrophils, FPRL1”, “cells” for “transfectants”, “transfered” for “transferred”

[11] = monocytes, pertussis toxin at 100 ng/ml for 30 min at 37° C. (FIG. 1B)
[12] = monocytes, pertussis toxin at 100 ng/ml for 30 min at 37° C. (FIG. 6B)

Molecule: CCCCC[C@H](O)/C=C/C=C\C=C\C=C\[C@@H](O)[C@@H](O)CCCC(=O)O [LXA4, lipoxin A4]
- inhibition of T21/DP107 signaling ([1]; phagocytes (monocytes), commercially available LXA4 (Biomol)): nor did we observe inhibition
- migration / chemotaxis of FPRL1/293 cells [2]: did not detect significant induction
- migration / chemotaxis of FPRL1/293 cells ([2]; listed as lipoxin A4): not able to induce
- induction of Ca++ mobilization in FPRL1 expressing cells ([3]; FPRL1/293 cells): did not detect significant induction
- inhibition of T21/DP107 signaling ([3]; FPRL1/293 cells, commercially available LXA4 (Biomol)): nor did we observe inhibition
- induction of Ca++ mobilization in FPRL1 expressing cells ([3]; FPRL1/293 cells, listed as lipoxin A4): not able to induce
- inhibition of T21/DP107 signaling ([4]; phagocytes (neutrophils), commercially available LXA4 (Biomol)): nor did we observe inhibition

Molecule: cholera toxin
- inhibition of T20/DP178-induced migration by pretreatment of the cells [5]: not
- inhibition of T21/DP107-induced migration by pretreatment of the cells [5]: not
- inhibition of T20/DP178-induced migration by pretreatment of the cells [6]: not
- inhibition of T21/DP107-induced migration by pretreatment of the cells [6]: not

Molecule: QNQQEKNEQELLELDKWASLWNWF [T914]
- anti-HIV-1 fusion activity [7]: ineffective

Molecule: CO[C@H]1[C@@H](OC)C[C@H](C)[C@@H](OC)C2=CC(=O)C=C(NC(=O)/C(C)=C/C=C\[C@H](OC)[C@@H](OC(N)=O)/C(C)=C/[C@@H]1C)C2=O [herbimycin A]
- inhibition of T20/DP178-induced migration by pretreatment of the cells ([5]; neutrophils): not
- inhibition of T21/DP107-induced migration by pretreatment of the cells ([5]; neutrophils): not
- inhibition of T20/DP178-induced migration by pretreatment of the cells [6, 11]: not
- inhibition of T21/DP107-induced migration by pretreatment of the cells [6, 12]: not

Molecule: pertussis toxin
- inhibition of T20/DP178-induced migration by pretreatment of the cells ([5]; neutrophils): completely inhibited
- inhibition of T21/DP107-induced migration by pretreatment of the cells ([5]; neutrophils): completely inhibited
- inhibition of T20/DP178-induced migration by pretreatment of the cells [6, 11]: completely inhibited
- inhibition of T21/DP107-induced migration by pretreatment of the cells [6, 12]: inhibition; also recorded: completely inhibited

Molecule: CSCC[C@H](NC=O)C(=O)N[C@@H](CC(C)C)C(=O)N[C@@H](Cc1ccccc1)C(=O)O [fMLP, N-formyl-methionyl-leucyl-phenylalanine]
- desensitizing effect on T20/DP178-induced Ca++ mobilization ([1]; monocytes, fMLP 100 nM, T20/DP178 100 nM): desensitizes; also recorded: marked desensitizing effect
- desensitizing effect on T21/DP107-induced Ca++ mobilization ([1]; monocytes, high concentrations (≧1 μM) of fMLP, T21/DP107 1 μM): desensitizes; also recorded: partial desensitizing effect
- migration of mock-transfected cells [8]: did not induce migration
- migration / chemotaxis of FPRL1 expressing cells ([2]; at concentrations as high as 50 μM (5×10−5 M)): does not induce significant chemotaxis; also recorded: failed to induce significant migration
- migration / chemotaxis of FPRL1/293 cells [2]: failed to migrate
- migration across the filters (microscopy at 200× magnification) [5]: significant migration
- Ca++ mobilization in parental or mock transfected HEK 293 cells [9]: did not induce any
- Ca++ flux in parental or mock-transfected cells [10]: Neither peptide stimulated; also recorded: did not induce any
- desensitization of T21/DP107-induced Ca++ mobilization [3]: desensitizes
- minimal effective concentration to induce Ca++ mobilization [3]: low μM range
- desensitizing effect on T20/DP178-induced Ca++ mobilization ([4]; neutrophils, fMLP 100 nM, T20/DP178 100 nM): desensitizes; also recorded: marked desensitizing effect
- desensitizing effect on T21/DP107-induced Ca++ mobilization ([4]; neutrophils, high concentrations (≧1 μM) of fMLP, T21/DP107 1 μM): desensitizes; also recorded: partial desensitizing effect
- migration across the filters (microscopy at 200× magnification) ([6]; monocytes, 100 nM): significant migration
